Patent US20100119483A1, “PEPTIDE VIRAL ENTRY INHIBITORS” (Schering Corporation, priority 2004, published 2010)

Key:
HCV pseudoparticles = test: HCV pseudoparticle (HCVpp) entry assay in Huh7 hepatoma cells, luciferase readout; format: cell-based, hepatitis C virus; conditions: peptide library screen, first screened at 100 ug/ml; cell entry inhibition vs uninhibited control
Method in brief: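 Huh7 cells were pre-treated with peptide for 1 h at 37 °C before exposure to HCV E1/E2-pseudotyped HIV luciferase particles made in 293T cells, followed by 72 h culture and luciferase readout. Peptides were tested at 10 points, 3-fold, from 100 ug/ml; particles lacking envelope served as non-specific entry control.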

[1] = test system: amphotropic murine leukemia virus; test: AMLV pseudotyped virus entry counter-screen, same infection protocol; format: cell-based; conditions: peptide library screen; cell entry inhibition vs uninhibited control
Protocol: Infection of hepatoma cell lines with HCV pseudotype particles and screen for inhibitory peptides. The hepatoma cells, Huh7, was seeded at 8000 cells in 90 ul medium in 96-well plate. In the case of the inhibitor screen, the inhibitor was incubated with cells for one hour at 37° C. and then 50 ul viral supernatant was added to the cells 24 hours after seeding. The viral stock was pre-tittered and diluted to yield approximately 10,000 to 20,000 RLU. The cells were incubated at 37° C. with 5% CO2 for additional 72 hours and were harvested for luciferase assay. Peptide stocks were prepared in 100% DMSO at 10 mg/ml and were first screened at 100 ug/ml and then a dose responsive curve was generated with 10 points 3-fold titration starting from 100 ug/ml.
The specificity of the peptides were counter-screened with AMLV and HIV pseudotyped viruses using the same infection protocol.

Substance	HCVpp % inh (HCV pseudoparticles) [%]	AMLVpp % inh [1] [%]
S-S-D-Q-R-P-Y-C-W-H-Y-A-P-R-P-C [SEQ ID NO: 44]	14	15
A-R-N-A-S-V-P-T-T-T-I-R-R-H-V-D [SEQ ID NO: 11]	−26	24
N-I-G-G-I-G-N-K-T-L-T-C-P-T-D-C [SEQ ID NO: 57]	39	20
V-Y-E-A-A-D-M-I-M-H-T-P-G-C-V-P [SEQ ID NO: 6]	−13	10
N-S-T-G-F-T-K-T-C-G-C-P-P-C-N-I [SEQ ID NO: 55]	23	3
N-S-S-R-C-W-V-A-L-T-P-T-L-A-A-R [SEQ ID NO: 9]	5	28
V-H-K-F-N-S-S-G-C-P-E-R-M-A-S-C [SEQ ID NO: 39]	−11	−15
A-Y-Y-S-W-V-G-N-W-A-K-V-L-I-V-M [SEQ ID NO: 27]	39	−2
